# Measured values taken from patent publication US20110263588A1, “TRICYCLIC COMPOUNDS AS GLUTAMATE RECEPTOR MODULATORS” (GLAXO GROUP LIMITED, priority 2008, published 2011).
# Where two headings read alike, the source gives them in different places.
# Target: T1, human mGlu5 recombinant receptor (Homo sapiens, UniProt P41594)
# T1 construct: expressed in transfected cells; host or cells: inducible CHO cell line stably expressing Aequorin (Euroscreen FAST); doxycycline-responsive promoter
# Test: mGluR5 calcium mobilization in inducible mGluR5 CHO cells (aequorin luminescence, antagonist mode)
# Format: cell-based
# Conditions: antagonist activity against EC80 glutamate, inducible CHO cell line expressing human mGlu5 and Aequorin, read-out: IC50 (uM) Ca^++ flux
# Text: mGluR5 Calcium Mobilization in Inducible mGluR5 CHO Cells
# To functionally measure mGluR5 calcium mobilization in response to agonists or antagonists, an inducible CHO cell line expressing the human mGlu5 recombinant receptor was used. This cell line also stably expressed Aequorin (Euroscreen FAST), a photoprotein that spontaneously couples with coelenterazine h when added exogenously in the cell media. The Aequorin-coelenterzine h complex undergoes a conformational change upon binding of calcium ions which results in the emission of blue light (wavelength 469 nm) that was measured using a Hamamatsu Functional Drug Screening System 6000.
# mGluR5 expression was induced by a doxycycline responsive promoter by growing cells to mid-log phase for 18 hours in media without antibiotics and supplemented with doxycycline (600 ng/mL). Cells were detached from the plate by gentle flushing using PBS-EDTA (5 mM EDTA) and centrifuged for collection and resuspended in “assay buffer” (HBSS, 2.1 mM CaCl2, 2 ug/mL glutamate-pyruvate transaminase, 4 mM MEM sodium pyruvate, and 0.1% protease free BSA). Cells were incubated with coelenterazine h (Molecular Probes) at room temperature for 4 hours before testing.
# To measure mGluR5 antagonist activity, cell suspensions containing test compound were mixed with EC80 glutamate and emission of light was recorded. Reference and test compounds were tested at several concentrations in duplicate to obtain dose response curves using the Prism GraphPad software (GraphPad Software Inc.). IC50 values were calculated from the dose response curves using the equation:
# Y=Bottom+(Top−Bottom)/(1+10̂((LogEC50−X)*HillSlope)).
# T1 sequence (P41594 21-1212): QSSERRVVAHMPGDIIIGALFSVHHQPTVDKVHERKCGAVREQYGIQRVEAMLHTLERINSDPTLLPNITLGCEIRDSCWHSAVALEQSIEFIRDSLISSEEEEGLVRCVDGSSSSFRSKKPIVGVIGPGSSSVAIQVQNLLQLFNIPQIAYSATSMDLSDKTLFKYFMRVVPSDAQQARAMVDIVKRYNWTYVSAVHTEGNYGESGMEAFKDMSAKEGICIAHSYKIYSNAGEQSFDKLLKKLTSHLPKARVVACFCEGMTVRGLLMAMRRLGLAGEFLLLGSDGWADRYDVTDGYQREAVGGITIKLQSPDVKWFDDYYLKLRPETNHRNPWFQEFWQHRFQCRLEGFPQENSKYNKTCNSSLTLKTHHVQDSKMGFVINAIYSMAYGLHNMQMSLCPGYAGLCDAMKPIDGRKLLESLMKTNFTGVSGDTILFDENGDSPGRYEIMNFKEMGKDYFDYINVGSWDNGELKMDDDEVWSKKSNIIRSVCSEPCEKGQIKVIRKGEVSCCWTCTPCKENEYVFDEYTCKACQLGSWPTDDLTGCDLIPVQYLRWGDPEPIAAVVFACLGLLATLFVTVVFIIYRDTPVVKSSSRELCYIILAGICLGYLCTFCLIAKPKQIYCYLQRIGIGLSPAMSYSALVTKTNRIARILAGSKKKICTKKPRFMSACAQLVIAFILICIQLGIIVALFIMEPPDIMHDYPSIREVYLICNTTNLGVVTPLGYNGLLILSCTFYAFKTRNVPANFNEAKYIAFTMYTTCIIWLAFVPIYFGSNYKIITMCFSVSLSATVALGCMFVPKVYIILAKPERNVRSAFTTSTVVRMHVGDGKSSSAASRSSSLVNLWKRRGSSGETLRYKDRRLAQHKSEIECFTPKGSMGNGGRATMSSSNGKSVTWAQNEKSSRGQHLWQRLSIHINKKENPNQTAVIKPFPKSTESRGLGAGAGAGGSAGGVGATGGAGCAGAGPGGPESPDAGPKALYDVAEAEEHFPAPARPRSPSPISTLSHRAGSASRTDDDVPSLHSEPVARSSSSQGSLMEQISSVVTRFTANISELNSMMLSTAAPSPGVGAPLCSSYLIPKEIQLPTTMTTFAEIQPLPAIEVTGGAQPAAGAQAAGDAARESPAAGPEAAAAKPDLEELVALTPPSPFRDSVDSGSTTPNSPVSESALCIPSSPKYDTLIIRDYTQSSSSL
Structure (SMILES),IC50 (Table 3),IC50 (Table 2)
"COc1cccc(NC(=O)c2nn(C)c3c2COc2ccccc2-3)c1 [N-(3-methoxyphenyl)-1-methyl-1,4-dihydrochromeno[4,3-c]pyrazole-3-carboxamide]",> 10 µM,–
"CCn1nc(C(=O)Nc2cccc(C)n2)c2c1-c1ncccc1CC2 [Example 16, 1-Ethyl-N-(6-methylpyridin-2-yl)-4,5-dihydro-1H-pyrazolo[4,3-h]quinoline-3-carboxamide]",–,< 1 µM
